Assay results from patent EP1200395B1, “UREA DERIVATIVES AS INHIBITORS OF CCR-3 RECEPTOR” (KIRIN BEER KABUSHIKI KAISHA, priority 1999, dated 2001).

Each compound was assayed against T1, CCR-3 (Homo sapiens, UniProt P51677) (assay: Eotaxin-induced chemotaxis of CCR-3 transfectant cells (CCR3/U937)). Conditions: 10 µM test compound; eotaxin 1 x 10^-9 M; CCR3/U937 cells (Table 3a).
T1 sequence (P51677 1-355): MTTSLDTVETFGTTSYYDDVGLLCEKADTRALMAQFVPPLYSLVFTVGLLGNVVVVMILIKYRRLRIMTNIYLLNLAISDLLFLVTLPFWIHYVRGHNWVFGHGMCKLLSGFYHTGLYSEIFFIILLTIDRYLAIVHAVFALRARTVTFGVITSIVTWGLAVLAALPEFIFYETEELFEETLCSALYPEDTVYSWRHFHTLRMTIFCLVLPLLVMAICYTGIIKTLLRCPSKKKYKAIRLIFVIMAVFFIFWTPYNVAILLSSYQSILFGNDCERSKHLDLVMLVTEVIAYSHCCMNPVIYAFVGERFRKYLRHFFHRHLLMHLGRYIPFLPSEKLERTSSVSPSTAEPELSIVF
Type: cell-based
Parameters: expressed in transfected cells; host or cells: U937

Row | SMILES | Chemotaxis Assay 10 µM (inhibition %)
1 | CC(c1ccc([N+](=O)[O-])cc1)N(CCCNC(=O)Nc1ccc(Br)cc1)CCCC(=O)O (centres unmarked) [Compound 259] | 100%
2 | COCCN(CCCNC(=O)Nc1ccccc1)CCc1ccc(Cl)cc1 [Compound 275] | 100%
3 | CC(C)N(CCCNC(=O)Nc1ccccc1)CCc1ccc(Cl)cc1 [Compound 276] | 100%
4 | O=C(NCCCN(CCc1cccc(Cl)c1)Cc1ccccc1)Nc1ccccc1 [Compound 280] | 60%
5 | N#Cc1ccc(CN(CCCNC(=O)Nc2ccccc2)CCc2ccc(Cl)cc2)cc1 [Compound 291] | 53%
6 | COc1cc(CN(CCCNC(=O)Nc2ccccc2)CCc2ccc(Cl)cc2)cc(OC)c1 [Compound 292] | 56%

More lines, now with the values ahead:

Row | Chemotaxis Assay 10 µM (inhibition %) | SMILES
7 | 100% | N#Cc1cccc(NC(=O)NCCCN(CCCC(=O)O)C2CCCc3ccccc32)c1 (centres unmarked) [Compound 260]
8 | 100% | COc1cccc(NC(=O)NCCCN(CCCC(=O)O)C2CCCc3ccccc32)c1 (centres unmarked) [Compound 261]
9 | 62% | CC(=O)c1cccc(NC(=O)NCCCN(CCCC(=O)O)C2CCCc3ccccc32)c1 (centres unmarked) [Compound 262]
10 | 100% | CSc1cccc(NC(=O)NCCCN(CCCC(=O)O)C2CCCc3ccccc32)c1 (centres unmarked) [Compound 263]
11 | 100% | CSc1ccc(NC(=O)NCCCN(CCCC(=O)O)C2CCCc3ccccc32)cc1 (centres unmarked) [Compound 264]
12 | 95% | O=C(O)CCCN(CCCNC(=O)Nc1ccc2ccccc2c1)C1CCCc2ccccc21 (centres unmarked) [Compound 265]
13 | 100% | O=C(O)CCCN(CCCNC(=O)Nc1ccc(OC(F)(F)F)cc1)C1CCCc2ccccc21 (centres unmarked) [Compound 266]
14 | 100% | CC(c1cccc2ccccc12)N(CCCNC(=O)Nc1ccc(Br)cc1)CCCC(=O)O (centres unmarked) [Compound 268]
15 | 100% | CC(c1ccc2ccccc2c1)N(CCCNC(=O)Nc1ccc(Br)cc1)CCCC(=O)O (centres unmarked) [Compound 270]
16 | 100% | CCC(c1ccccc1)N(CCCNC(=O)Nc1ccc(Br)cc1)CCCC(=O)O (centres unmarked) [Compound 271]
17 | 88% | O=C(O)CCCN(CCCNC(=O)Nc1ccc(Br)cc1)C1c2ccccc2CC1O (centres unmarked) [Compound 273]
18 | 60% | COC(=O)CCCN(CCCNC(=O)Nc1ccccc1)CCc1ccc(Cl)cc1 [Compound 274]
19 | 76% | O=C(O)CCCN(CCCNC(=O)Nc1ccc(-c2ccccc2)cc1)C1CCCc2ccccc21 (centres unmarked) [Compound 277]
20 | 100% | CC(=O)c1ccc(NC(=O)NCCCN(CCCC(=O)O)C2CCCc3ccccc32)cc1 (centres unmarked) [Compound 278]

Same assay, conditions: 10 µM test compound; eotaxin 1 x 10^-9 M; CCR3/U937 cells (Table 3c)

Row | Chemotaxis Assay 10 µM (inhibition %) | SMILES
21 | 100% | CCCC[N+](CC)(CCCNC(=O)Nc1ccc(Br)cc1)CCc1ccc(Cl)cc1.[I-] (centres unmarked) [Compound 294]
22 | 100% | CCC[N+](CC)(CCCNC(=O)Nc1ccc(Br)cc1)CCc1ccc(Cl)cc1.[I-] (centres unmarked) [Compound 295]

Same assay, conditions: U-937; 10 µM test compound; eotaxin 1 x 10^-9 M; CCR3/U937 cells (Table 3a)

Row | inhibition at 10 µM | SMILES
23 | 100% | C[C@H](c1ccc(Br)cc1)N(CCCNC(=O)Nc1ccc(Br)cc1)CCCC(=O)O [Compound 258, 4-[[3-(4-Bromophenylureido)propyl] [(1R)-1-(4-bromophenyl)ethyl]amino]butanoic acid]
24 | 100% | CC(c1ccc(F)cc1)N(CCCNC(=O)Nc1ccc(Br)cc1)CCCC(=O)O (centres unmarked) [Compound 269, 4-[[3-(4-Bromophenylureido)propyl][1-(4-fluorophenyl)ethyl]amino]butanoic acid]
25 | 89% | CC(c1ccc(Cl)cc1)N(CCCNC(=O)Nc1ccc(Br)cc1)CCCC(=O)O (centres unmarked) [Compound 272, 4-[[3-(4-Bromophenylureido)propyl][1-(4-chlorophenyl)ethyl]amino]butanoic acid]
26 | 95% | C[C@@H](c1ccc(Br)cc1)N(CCCNC(=O)Nc1ccc(Br)cc1)CCCC(=O)O [Compound 293, 4-[[3-(4-Bromophenylureido)propyl][(1S)-1-(4-bromophenyl)ethyl]amino]butanoic acid]
